Source: US20240197709A1, “POTENTIATING THE TUMOR-SELECTIVE EFFECTS OF NQO1-BIOACTIVATABLE AGENT BY USE OF CMET INHIBITOR” (The Trustees of Indiana University, priority 2022, published 2024)

Assays:
A549 shSCR 3D spheroids = assay: 3D spheroid growth and viability, A549 shSCR; format: cell-based; details: β-lap 3 μM
Protocol: FIG. 5A. Representative brightfield images of A549 shSCR versus shMET 3D spheroids treated with vehicle control (0.1% DMSO) or β-lap (3 μM, which is sub-lethal in A549 NSCLC cells in 2D long-term survival assays) imaged at indicated times to monitor microtumor spheroid growth. Scale bar=250 μm.
FIG. 5B. Graphical comparison of 3D spheroid (microtumor) growth of A549 shSCR vs shMET at indicated treatments over time relative to initial 3D spheroid area (day 1).
FIG. 5C. Quantification of 3D spheroid viability at day 10 (in panel A) using CellTiter-Glo® 3D Cell Viability Assay.
Studies have shown that drug sensitivity of cancer cells cultured in three-dimension (3D) more accurately predicts their sensitivity in vivo.30-31 Thus, we utilized 3D tumor spheroid growth of our isogenic A549 shSCR or shMET cancer cell lines to closely recapitulate the cell-cell interactions of human tumors32-33. After three days of spheroid formation, A549 shSCR and shMET microtumors were exposed to vehicle control (0.1% DMSO) or β-lap (3 μM, sub-lethal concentration in 2D culture for A549 parental line), and imaged over time for 3D spheroid tumor growth for comparison. […] Additionally, the viability of A549 shSCR versus shMET 3D spheroids treated with vehicle control and β-lap at day 10 was determined using CellTiter-Glo® 3D Viability Assay (FIG. 5C) for comparison. […]

[1] = tested on: Capan2-mCherry microtumor; assay: 3D spheroid co-culture, tumor cells; format: cell-based; details: 3D co-culture with NIH3T3-GFP; crizotinib 2 μM, β-lap 2 μM or 4 μM
Protocol: FIG. 5D. Top Inset: Representative brightfield, green (NIH3T3-GFP), red (Capan2-mCherry), and merged images of 3D spheroid co-culture of Capan2-mCherry (cancer cells) and NIH3T3-GFP (normal cells). 3D co-cultures were exposed to specified treatment conditions and imaged at indicated times to monitor drug response. Scale bar=250 μm. Untreated NIH3T3-GFP 3D spheroid culture by itself (imaged at indicated times) was added for reference.
FIG. 5E. Bar graph of Capan2-mCherry 3D spheroid microtumor growth at specified treatment conditions over time. Asterisk (*) indicates synergistic response in the combination treatment compared to the corresponding individual treatments alone.
Next, we investigated the tumor-selectivity and efficacy of our combination treatment strategy using 3D co-culture spheroids of Capan2 PDAC (permanently labelled with mCherry) and NIH3T3 mouse embryonic fibroblast cells (permanently labelled with GFP) to mimic physiological cell-cell and cell-environment interactions during treatment. […] These are consistent with patient data comparing associated normal tissues versus tumors in pancreas (FIGS. 1-1B, 1-1G) and lungs (FIGS. 1A, 1-1B, 1-1H). Using confocal fluorescent microscopy, we noted that NIH3T3-GFP fibroblast cells were surrounding the Capan2-mCherry PDAC cells in the 3D spheroid co-culture (FIG. 5D).

[2] = β-lap monotherapy; cited from earlier work

Q: With CC1(C)CCC2=C(O1)c1ccccc1C(=O)C2=O [β-lap, β-Lapachone] as the compound, how does the “3D spheroid (microtumor) growth over time” value (A549 shSCR 3D spheroids) read?
A: relatively negligible microtumor lethality

Q: And the “3D spheroid viability at day 10 (CellTiter-Glo 3D)” value (A549 shSCR 3D spheroids)?
A: no significant lethality

Q: What about the Capan2-mCherry microtumor growth [1] of the same compound?
A: very little effect on tumor growth

Q: And the “toxicity at high doses in clinical trials” value [2]?
A: methemoglobinemia and haemolysis
